This is an account of results in patent publication US20250352549A1, “SUBSTITUTED HETEROCYCLIC COMPOUND DERIVATIVES AND THEIR PHARMACEUTICAL USE” (AVELOS THERAPEUTICS INC., priority 0001, published 2025).

Experiment [1] concerns breast cancer MDA-MB-468 cells. The note with it: disclosed in CN 116942819; cited from earlier work.
The subject of experiment [2] is breast cancer MDA-MB-231 cells. Particulars: disclosed in CN 116942819; cited from earlier work.
The next experiment deals with T cells. The note with it: disclosed in CN 116942819; cited from earlier work.
Experiment [3] addresses Wild-type human active MASTL (Homo sapiens (Human), UniProt Q96GX5). Briefly: MASTL activity assay. It counts as biochemical. Particulars: ATP 18 μM, biotin tagged 40-mer ENSA peptide 10 nM, 60 minutes at room temperature, HTRF/FRET readout. On the procedure: Wild-type human active MASTL (154 pM) was incubated in assay buffer (50 mM HEPES, 100 mM NaCl, 0.1 mM EGTA, 10 mM MgCl2, 0.01% Tween-20, 0.5 mM TCEP, pH 7.5) with biotin tagged 40-mer ENSA peptide (10 nM), test compound and ATP (18 μM) for 60 minutes at room temperature. Test compounds were assayed using a 12-point dose range consisting of a 0, DMSO control and 10 sequential doses consisting from 0.0005, 0.002, 0.005, 0.014, 0.04, 0.12, 0.37, 1.11, 3.33 and 10 μM. The DMSO concentration was the same (1%) in all samples. An equal volume of detection buffer (assay buffer+267.5 pM Ab-K, 1.25 nM SA-D2, 20 mM EDTA and 400 mM KF) was added to stop the reaction to make a final volume of 20 μl, RT for 60 mins. Activity was measured using a plate reader (PerkinElmer EnSight) by the FRET signal generated between SA-D2 (streptavidin-D2) and Ab-K (anti-phospho-Serine 67 ENSA antibody (rabbit polyclonal, using standard techniques by a commercial supplier) conjugated to Cryptate). HTRF reagents (CisBio) were prepared as per the manufacturer recommendations. The 40-mer biotin-tagged ENSA peptide (synthesised by Bionics) used was based around Serine 67 on ENSA ([…]).
Background: Time-resolved FRET reads energy transfer from a long-lived donor to a nearby acceptor.

Sequence of Wild-type human active MASTL (Q96GX5 whole entry): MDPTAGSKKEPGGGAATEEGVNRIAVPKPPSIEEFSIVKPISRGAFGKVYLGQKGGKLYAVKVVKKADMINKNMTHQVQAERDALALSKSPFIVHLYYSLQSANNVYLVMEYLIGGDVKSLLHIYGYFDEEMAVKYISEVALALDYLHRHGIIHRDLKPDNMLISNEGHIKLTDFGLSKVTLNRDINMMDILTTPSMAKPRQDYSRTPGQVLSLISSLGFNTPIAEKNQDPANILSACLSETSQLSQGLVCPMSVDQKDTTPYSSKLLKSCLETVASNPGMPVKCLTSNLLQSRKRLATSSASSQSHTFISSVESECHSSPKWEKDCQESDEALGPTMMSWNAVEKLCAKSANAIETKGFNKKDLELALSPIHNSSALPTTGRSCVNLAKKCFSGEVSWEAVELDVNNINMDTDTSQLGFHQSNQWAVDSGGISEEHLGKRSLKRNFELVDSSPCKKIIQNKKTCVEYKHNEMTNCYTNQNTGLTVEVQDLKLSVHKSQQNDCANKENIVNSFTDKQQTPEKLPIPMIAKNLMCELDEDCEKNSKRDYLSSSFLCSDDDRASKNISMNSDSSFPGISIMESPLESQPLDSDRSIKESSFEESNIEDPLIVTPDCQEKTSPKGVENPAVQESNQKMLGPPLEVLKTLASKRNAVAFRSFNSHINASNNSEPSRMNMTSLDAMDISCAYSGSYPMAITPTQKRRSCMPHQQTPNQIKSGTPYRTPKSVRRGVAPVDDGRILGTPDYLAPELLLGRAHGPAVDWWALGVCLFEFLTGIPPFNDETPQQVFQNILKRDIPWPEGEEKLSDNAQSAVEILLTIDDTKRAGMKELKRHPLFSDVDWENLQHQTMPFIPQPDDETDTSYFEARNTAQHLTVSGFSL

In the case of `O=C(Nc1nc2ccccc2[nH]1)c1cccc(-n2cccc2)c1` [MKI-1], the “effect on the up-regulation of the interferon-induced PD-L1 expression” value in experiment [1] is recorded as “remarkable inhibition effect”. For the same compound, in experiment [2], the “effect on PD-L1 expression of tumor cells which expressed PD-L1 in a high level and were not affected by interferon” value is recorded as “not possible to effect”. The “anti-tumor function of T cells” value with T cells is “effectively enhance the anti-tumor function of T cells”.

For orientation: IC50 means the midpoint of a concentration-inhibition curve. A lower IC50 goes with greater potency in that assay. The compound `CNc1nc(N[C@H](c2c[nH]c(C(F)(F)F)n2)C(C)C)nc(-c2ccc3cnc(C)n3c2)n1` (single isomer, unassigned) [Example 149B, N2-methyl-6-(3-methylimidazo[1,5-a]pyridin-6-yl)-N4-[(1S or 1R)-2-methyl-1-[2-(trifluoromethyl)-1H-imidazol-4-yl]propyl]-1,3,5-triazine-2,4-diamine] returned an IC50 in experiment [3] of 1 to 500 nM. Compound `Cc1ncc2ccc(-c3nc(N)nc(N[C@@H](c4ccc(F)cn4)C(C)C)n3)cn12` (single isomer, unassigned) [Example 136A, N2-[(1R or 1S)-1-(5-fluoro-2-pyridyl)-2-methyl-propyl]-6-(3-methylimidazo[1,5-a]pyridin-6-yl)-1,3,5-triazine-2,4-diamine] registered an IC50 in experiment [3] of 1 to 500 nM. The same measure, in the same setting: with `Cc1ncc2ccc(-c3nc(N)nc(NC(c4c[nH]c(C(F)(F)F)n4)C4CCCCC4)n3)cn12` (single isomer, unassigned) [Example 153B, N4-[(S or R)-cyclohexyl-[2-(trifluoromethyl)-1H-imidazol-4-yl]methyl]-6-(3-methylimidazo[1,5-a]pyridin-6-yl)-1,3,5-triazine-2,4-diamine] the figure was 1 to 500 nM; with `Cc1ncc2ccc(-c3nc(N)nc(N[C@H](CC4CC4)c4c[nH]c(C(F)(F)F)n4)n3)cn12` (single isomer, unassigned) [Example 7A, N4-[(1S or 1R)-2-cyclopropyl-1-[2-(trifluoromethyl)-1H-imidazol-4-yl]ethyl]-6-(3-methylimidazo[1,5-a]pyridin-6-yl)-1,3,5-triazine-2,4-diamine], 1 to 500 nM. The same measure, in the same setting: with `CC(C)C(Nc1nc(N)nc(-c2ccc3c(cnn3C)c2)n1)c1ccn(C(F)F)n1` (single isomer, unassigned) [Example 47A, (R or S)—N2-(1-(1-(difluoromethyl)-1H-pyrazol-3-yl)-2-methylpropyl)-6-(1-methyl-1H-indazol-5-yl)-1,3,5-triazine-2,4-diamine] the figure was 1 to 500 nM; with `Cc1ncc2ccc(-c3nc(N)nc(N[C@H](c4c[nH]c(C(F)(F)F)n4)C(C)C)n3)cn12` (single isomer, unassigned) [Example 142B, 6-(3-methylimidazo[1,5-a]pyridin-6-yl)-N2-[(1R or 1S)-2-methyl-1-[2-(trifluoromethyl)-1H-imidazol-4-yl]propyl]-1,3,5-triazine-2,4-diamine], 1 to 500 nM.
